Measurements reported in patent publication US6576671B1, “Aminotetralin derivatives for the therapy of cardiovascular diseases” (Chiese Farmaceutici S.p.A., priority 1999, dated 2003).

Tests used:
[1] = system: dogs; details: approximately 10 μg/kg per minute continuous intravenous infusion; cited from earlier work
[2] = molecular target: T1, α2 adrenergic receptors (Homo sapiens, UniProt P08913); assay: α2 adrenergic receptor binding, [3H]-rauwolscine, human platelets
T1 construct: from tissue; host or cells: human platelets
T1 sequence (P08913 1-465): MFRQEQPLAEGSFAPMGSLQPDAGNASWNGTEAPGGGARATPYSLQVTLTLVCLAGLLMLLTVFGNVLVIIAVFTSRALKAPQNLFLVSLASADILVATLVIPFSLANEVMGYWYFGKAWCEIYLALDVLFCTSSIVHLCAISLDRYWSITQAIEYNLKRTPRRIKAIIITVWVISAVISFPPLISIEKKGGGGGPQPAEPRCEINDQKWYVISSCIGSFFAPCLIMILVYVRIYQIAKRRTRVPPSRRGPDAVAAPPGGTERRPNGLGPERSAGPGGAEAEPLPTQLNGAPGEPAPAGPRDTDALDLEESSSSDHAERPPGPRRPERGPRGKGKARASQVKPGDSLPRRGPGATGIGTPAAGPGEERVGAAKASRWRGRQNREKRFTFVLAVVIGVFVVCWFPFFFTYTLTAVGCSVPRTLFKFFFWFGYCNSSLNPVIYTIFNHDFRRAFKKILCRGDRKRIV
Source text: (§1) The antagonist [^3H]-rauwolscine was used as marker of the receptor, being its binding reversible, saturable and specific.

[3] = system: dopamine receptor; details: cited from earlier work
[4] = molecular target: T2, peripheral DA2 dopaminergic receptors (Bos taurus, UniProt P20288); assay: Peripheral DA2 dopaminergic binding test, [3H](-)sulpiride, bovine adrenal cortex
T2 construct: peripheral DA2 dopaminergic receptors was tested on bovine adrenal cortex; from tissue; host or cells: bovine adrenal cortex
Procedure: The affinity of CHF 1024 for peripheral DA2 dopaminergic receptors was tested on bovine adrenal cortex evaluating its effect on the interaction of [^3H](-)sulpiride with the specific binding sites of this system.

[5] = molecular target: α2-adrenergic receptors; assay: α2-adrenergic activity in isolated neuronally-stimulated rat vas deferens; details: for IC50: isolated neuronally-stimulated rat vas deferens, read-out: IC50, 50% inhibition of the electrically induced contraction
[6] = system: rats with left ventricular dysfunction; assay: Rat model of left ventricular dysfunction after coronary artery occlusion, urine catecholamine excretion; assay type: in vivo
Procedure: Myocardial infarction (MI) was induced by left coronary artery ligation in 134 rats, and 6 were left unoperated. After two months, the survived animals with ECG evidence of MI entered a four-week treatment phase. They were randomly allocated to one of the following treatments: 1) delapril 6 mg.kg^−1.day^−1, (n=12), 2) delapril 6 mg.kg^−1.day^−1 and CHF 1024 0.33 mg.kg^−1.day^−1(n=13), 3) vehicle (0.05% ascorbic acid; n=12).
Delapril was dissolved in drinking water at the final concentration of 0.043 mg/ml. The delapril solutions were prepared, freshly every third day and their concentration adjusted to body weight every 15 days to obtain an average dose of 6 mg.kg^−1.day^−1.
CHF 1024 was administered continuously for four weeks through osmotic minipumps implanted subcutaneously behind the neck.
Concentrated solutions of CHF 1024 were dissolved in 10% ascorbic acid in distilled water at a final concentration of 40 mM (mean delivery rate 0.33 mg.kg^−1.day^−1).
At week 4 of treatment, the rats were placed in individual metabolic cages to collect 24-hour urine for measuring catecholamine excretion. […] Only rats with mean infarct size >12%, histologically determined in 6-10 serial cross-sections as percentage of LV area, were analyzed. The numbers of animals analyzed in each experimental group were 6 (vehicle), 6 (delapril alone), 8 (delapril and CHF 1024) and 6 non-operated.

[7] = system: α2 adrenergic receptors; assay: α2 adrenergic receptor binding, [3H]-rauwolscine, rat cerebral cortex; details: for IC50: rat cerebral cortex, read-out: IC50, 50% inhibition of [3H]-rauwolscine specific binding
Procedure: The affinity of CHF 1024 and CHF 1035 for α2, adrenergic receptors was tested on human platelets and on rat cerebral cortex.
as §1
Values are expressed as IC50=molar concentration of drug required for 50% inhibition of [^3H]-rauwolscine specific binding.

[8] = system: anesthetized rats; assay: In vivo cardiovascular effects in anesthetized rats; parameters: species or system rat; details: for mean arterial pressure, change from basal value: 0.69 µg/kg/min i.v.
Procedure: Male albino rats (Sprague Dawley, 350-400 g) were anesthetized by sodium pentobarbital (60 mg/kg) and maintained by i.v. infusion (6 mg/h). The trachea was cannulated to facilitate spontaneous respiration and body temperature was maintained at 37 C. Homoiothermic Blanket Control System (Harvard, England).
The right femoral artery was cannulated for arterial blood pressure measurement and left jugular vein or duodenum were cannulated for drug administration. Mean arterial pressure and heart rate were continuously monitored by pressure transducer and medium gain amplifier triggered by the ECG signal, respectively. […]
CHF 1035 was administered intraduodenally (1 mg/kg).
The response to […] was determined in the absence and in the presence of the selective β2-adrenoceptor antagonist ICI 118.551 (0.2 mg/kg i.v.) and the selective DA2-dopaminergic antagonist domperidone (0 3 mg/kg i.v.) both alone and in combination. The antagonists were administered 10 min before the i.d. drug administration.

[9] = molecular target: peripheral DA2 dopaminergic receptors (Oryctolagus cuniculus, UniProt G1T1Q0); assay: Peripheral DA2 dopaminergic activity in electrically stimulated rabbit rectococcygeus muscle; details: for IC50: read-out: IC50, 50% inhibition of the electrically induced contraction
Source text: The activity of CHF 1024 and CHF 1035 on peripheral DA2 dopaminergic receptors has been tested in the electrically stimulated rabbit rectococcygeus muscle.

peripheral DA2 dopaminergic receptors (Oryctolagus cuniculus, UniProt G1T1Q0), sequence (G1T1Q0 1-443): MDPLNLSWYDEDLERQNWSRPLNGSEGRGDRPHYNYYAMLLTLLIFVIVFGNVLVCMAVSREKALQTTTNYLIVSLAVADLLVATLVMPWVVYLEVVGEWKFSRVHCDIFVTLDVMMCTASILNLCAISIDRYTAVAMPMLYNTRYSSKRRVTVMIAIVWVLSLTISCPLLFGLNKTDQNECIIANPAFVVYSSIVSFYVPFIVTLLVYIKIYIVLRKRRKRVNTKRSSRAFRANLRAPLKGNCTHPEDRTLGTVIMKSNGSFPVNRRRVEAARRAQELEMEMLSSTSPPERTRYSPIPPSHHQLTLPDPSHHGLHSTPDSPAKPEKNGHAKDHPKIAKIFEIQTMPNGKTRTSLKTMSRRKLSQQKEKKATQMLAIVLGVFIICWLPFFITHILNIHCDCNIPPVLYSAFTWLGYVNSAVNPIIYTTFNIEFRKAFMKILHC
T2 sequence (P20288 whole entry): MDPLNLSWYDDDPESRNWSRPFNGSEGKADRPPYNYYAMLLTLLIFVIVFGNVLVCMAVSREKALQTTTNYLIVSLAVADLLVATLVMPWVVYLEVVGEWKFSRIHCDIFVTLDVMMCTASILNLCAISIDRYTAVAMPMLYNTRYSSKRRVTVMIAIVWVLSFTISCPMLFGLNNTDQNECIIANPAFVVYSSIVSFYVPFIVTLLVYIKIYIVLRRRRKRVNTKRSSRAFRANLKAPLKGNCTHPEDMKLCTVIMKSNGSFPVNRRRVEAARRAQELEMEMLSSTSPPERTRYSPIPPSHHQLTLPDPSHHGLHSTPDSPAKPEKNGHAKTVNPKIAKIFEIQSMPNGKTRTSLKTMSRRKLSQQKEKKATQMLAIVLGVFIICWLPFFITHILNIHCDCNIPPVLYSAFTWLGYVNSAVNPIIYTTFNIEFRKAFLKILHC

Br.CNC1CCc2c(ccc(O)c2O)C1 (stereo not drawn) [5,6-dihydroxy-2-methylaminotetralin hydrobromide]
coronary blood flow [1]: substantial increase

CNC1CCc2c(ccc(O)c2O)C1 (stereo not drawn) [CHF 1024, 5,6-dihydroxy-2-methylaminotetralin]
IC50 ([2]; human platelets, read-out: IC50, 50% inhibition of [3H]-rauwolscine specific binding): 0.339 µM
affinity higher than dopamine ([2]; platelets): 9 times
dopamine receptor agonist activity in relaxing splenic artery strips [3]: inactive
IC50 [4]: 0.021 µM
affinity for DA2 receptors higher than dopamine ([4]; bovine adrenal cortex): 11 times
IC50 [5]: 0.27 µM
more potent than dopamine ([5]; rat vas deferens): about 20 times
urine norepinephrine excretion, reduced with respect to the vehicle group ([6]; CHF 1024 0.33 mg.kg^−1.day^−1 s.c. minipump added to delapril 6 mg.kg^−1.day^−1, week 4): 40%
affinity higher than dopamine ([7]; cerebral cortex): 15 times
IC50 [7]: 0.262 µM
mean arterial pressure, change from basal value ([8]; 5 min after infusion start): −24.0
mean arterial pressure, change from basal value ([8]; 5 min after infusion stop): −12.7
mean arterial pressure, change from basal value ([8]; 30 min after infusion start): −25.7
mean arterial pressure, change from basal value ([8]; 30 min after infusion stop): −6.7
effect on mean arterial pressure ([8]; intravenous administration, persists after infusion discontinuation): dose-dependent reduction
heart rate ([8]; intravenous infusion, in spite of marked hypotension): no increase
effect in presence of selective DA2-antagonist domperidone [9]: competitively antagonized
more potent than dopamine [9]: approximately 3 times
IC50 [9]: 0.0373 µM

NCCc1ccc(O)c(O)c1 [DOPAMINE, dopamine, reference compound]
IC50 [5]: 4.91 µM
IC50 [7]: 4.06 µM
IC50 [9]: 0.0993 µM

CCOC(=O)[C@H](CCc1ccccc1)N[C@@H](C)C(=O)N(CC(=O)O)C1Cc2ccccc2C1 [delapril, reference compound]
urine norepinephrine excretion ([6]; delapril alone 6 mg.kg^−1.day^−1, week 4, 24-hour urine): unaffected
